Test system: heme oxygenase
Experiment: microsomal heme oxygenase activity in CCD-860SK skin fibroblast cells
Format: cell-based, human
Details: 100 μM; CCD-860 skin fibroblast cells, collected after two hours; mean ± SD; control 294 ± 18
Protocol: Cell line CCD-860SK is a human skin fibroblast cell line which is publicly available from the American Type Culture Collection. Cell cultures of this line were propagated in Iscove's modified Dulbecco's medium supplemented with 10% fetal bovine […]. Following propagation, they were grown in 175 cm^2 Falcon tissue culture flasks, using Iscove's modified Dulbecco's medium, supplemented with 10% (v/v) heat inactivated fetal bovine serum, 50 U penicillin/ml, 50 ug streptomycin/ml, and 2 mM glutamine. The cells were then seeded into culture flasks at a concentration of 1×10^5 cells/ml, and incubated at 37° C. in a humidified 5% CO2 /95% air chamber. After three days, old media were removed, and replaced with fresh media. […]
To measure total enzyme activity, microsomes were prepared as described by Tenhunen et al., J. Biol. Chem. 244: 6388-6394 (1969), incorporated by reference herein. The activity of microsomal heme oxygenase was then determined, using 0.5-1 mg protein in an incubation medium as described by Tenhunen et al., supra. Total protein was then determined using the classic method of Lowry et al., J. Biol. Chem. 193: […] (1951), using bovine serum albumin as standard.

`[Cl][Sn][Cl]` [SnCl2] gave a Heme oxygenase of 802 ± 49 pmol bilirubin/mg/hr.

Source: patent publication US5783201A, “Method for treating non-ocular epithelial disorders via increasing heme oxygenase levels and/or decreasing levels of arachidonic acid derivatives” (Hemogen, Inc., priority 1997, dated 1998)
